This is an account of results in paper PMC4215984, “Structure of a Diguanylate Cyclase from Thermotoga maritima: Insights into Activation, Feedback Inhibition and Thermostability” (PLoS ONE, 2014).

One test has as its target T1, RocR (Pseudomonas aeruginosa, UniProt Q9HX69).
T1 construct: recombinant RocR phosphodiesterase, expressed and purified as in cited earlier work
Nature of the test: hydrolysis of tDGC-bound c-di-GMP to pGpG, gel filtration and mass spectrometry. The test is classed as biochemical. The conditions noted are these: 25 mM Tris-HCl, 300 mM NaCl, 5% glycerol, 10 mM MgCl2, 2 h, room temperature. For orientation: SEC sorts molecules by how far they enter the pores of the column.

The target of test [1] is T2, tDGC (GGDEF domain of TM1788) (Thermotoga maritima, UniProt Q9X2A8, R233A).
T2 construct: gene TM_1788; GGDEF domain, residues 82-248 of 248, N-terminal His6 tag, pET28b (salt-bridge mutants in pET22b), E. coli BL21(DE3); dimer with c-di-GMP, monomer without nucleotide
Nature of the test: gel filtration. The test is classed as binding. The conditions noted are these: I-site; co-purified ligand.

In test [2] the target is T3, tDGC (GGDEF domain of TM1788) (Thermotoga maritima, UniProt Q9X2A8).
T3 construct: gene TM_1788; GGDEF domain, residues 82-248 of 248, N-terminal His6 tag, pET28b (salt-bridge mutants in pET22b), E. coli BL21(DE3); dimer with c-di-GMP, monomer without nucleotide
Nature of the test: X-ray crystallography. The test is classed as binding. The conditions noted are these: feedback-inhibitory I-site (158-RxxD-161, secondary R115); co-purified ligand; inactive dimer crystals pH 6.5 (2.27 Å), active-like dimer crystals pH 4.0 (1.9 Å).

In test [3] the target is T3, tDGC (GGDEF domain of TM1788). Nature of the test: thermal unfolding by circular dichroism at […] nm. The conditions noted are these: 20 mM Tris-HCl pH 8.5, 250 mM NaCl, 5% glycerol, 10 mM MgCl2, 0.8 mg/ml; co-purified ligand at I-site. The test is classed as binding. For orientation: Circular dichroism is the unequal absorption of left and right circularly polarised light.

Test [4] deals with T4, tDGC (GGDEF domain of TM1788) (Thermotoga maritima, UniProt Q9X2A8, E196A).
T4 construct: gene TM_1788; GGDEF domain, residues 82-248 of 248, N-terminal His6 tag, pET28b (salt-bridge mutants in pET22b), E. coli BL21(DE3); dimer with c-di-GMP, monomer without nucleotide
Nature of the test: gel filtration. The class given is binding. The conditions noted are these: I-site; co-purified ligand.

Test [5] concerns the target T5, tDGC (GGDEF domain of TM1788) (Thermotoga maritima, UniProt Q9X2A8, D177A).
T5 construct: gene TM_1788; GGDEF domain, residues 82-248 of 248, N-terminal His6 tag, pET28b (salt-bridge mutants in pET22b), E. coli BL21(DE3); dimer with c-di-GMP, monomer without nucleotide
Nature of the test: gel filtration. The test is classed as binding. The conditions noted are these: I-site; co-purified ligand.

T3 sequence (Q9X2A8 entry or part of it): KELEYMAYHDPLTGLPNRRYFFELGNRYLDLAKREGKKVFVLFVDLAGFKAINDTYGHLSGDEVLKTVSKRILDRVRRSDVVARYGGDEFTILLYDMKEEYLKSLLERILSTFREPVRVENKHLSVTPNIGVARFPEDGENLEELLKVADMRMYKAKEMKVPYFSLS
T1 sequence (Q9HX69 whole entry): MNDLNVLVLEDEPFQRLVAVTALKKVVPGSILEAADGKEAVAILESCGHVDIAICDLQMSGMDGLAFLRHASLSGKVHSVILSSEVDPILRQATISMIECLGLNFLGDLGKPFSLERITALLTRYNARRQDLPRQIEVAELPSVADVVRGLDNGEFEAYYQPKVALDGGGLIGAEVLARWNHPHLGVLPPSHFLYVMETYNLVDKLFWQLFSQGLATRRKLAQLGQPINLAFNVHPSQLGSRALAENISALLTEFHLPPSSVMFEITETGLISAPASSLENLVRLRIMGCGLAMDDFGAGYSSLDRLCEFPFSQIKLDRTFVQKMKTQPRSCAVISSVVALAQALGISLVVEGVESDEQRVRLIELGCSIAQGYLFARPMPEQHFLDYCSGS
T4 sequence (Q9X2A8 entry or part of it E196A): as the sequence (Q9X2A8 entry or part of it) above, with E115A counted along it
T2 sequence (Q9X2A8 entry or part of it R233A): as the sequence (Q9X2A8 entry or part of it) above, with R152A counted along it
T5 sequence (Q9X2A8 entry or part of it D177A): as the sequence (Q9X2A8 entry or part of it) above, with D96A counted along it

Regarding `Nc1nc2c(ncn2[C@@H]2O[C@@H]3COP(=O)(O)O[C@H]4[C@@H](O)[C@H](n5cnc6c(=O)[nH]c(N)nc65)O[C@@H]4COP(=O)(O)O[C@H]3[C@H]2O)c(=O)[nH]1` [c-di-GMP], the “hydrolysis of tDGC-bound c-di-GMP to pGpG, gel filtration and mass spectrometry” value on RocR is recorded as “Following incubation of the wild type tDGC bound to c-di-GMP with RocR”. The “gel filtration” value was “The three mutants eluted as dimers in gel filtration, indicating that c-di-GMP is bound” in test [1]; “The three mutants eluted as dimers in gel filtration, indicating that c-di-GMP is bound” in test [4]; “The three mutants eluted as dimers in gel filtration, indicating that c-di-GMP is bound” in test [5]. The structure entry in test [2] was “The wild type tDGC protein co-purifies with c-di-GMP and co-crystallizes without any extraneous addition of ligand”. The “Tm (c-di-GMP-bound dimer; nucleotide-free monomer 85.5)” value in test [3] was 85.0 °C.
